{
  "source": "patent US8642631B2",
  "about": "“Methods of treating mammals with eustachian tube dysfunctions” (University of Melbourne, priority 2008, dated 2014)",
  "system": "Eustachian tube",
  "test": "Eustachian tube function test (middle ear pressure equalisation on reflex swallowing) in anaesthetised rats",
  "format": "in vivo, Sprague Dawley rats",
  "procedure": "Animal experiments were conducted on female and male adult Sprague Dawley rats weighing 250-450 g. Up to five animals were used in each section of the experiment. In this figure, a small tube is glued into the tympanic bulla of an anaesthetised rat (A). The tube is connected to a syringe pump (B), a pressure transducer (C) and data recorder (D) and to a manometer (E). The syringe pump is used to increase pressure within the middle ear. […] From this it can be seen that intra-bulla pressure was increased from ambient (Amb) to around 130 mm of water. […] The overall pressure drop is a measure of the efficiency of pressure equalisation via the Eustachian tube. Each experiment consisted of a series of active Eustachian tube function tests preceded by a passive run. In the passive run pressure was increased in the bulla by a continuous air flow (30 ml/min) until the Eustachian tube opened spontaneously. While the air continued to flow, the pressure in the middle ear decreased until the Eustachian tube closed. Now the pressure in the middle ear, due to continued air flow, could build up again until the Eustachian tube opened a second time. This enabled the measurement of the passive opening and closing pressures of the Eustachian tube. The active runs consisted of three preceding control runs (C1-C3) followed by three runs assessing the effect of intervention S1-S6. At the start of each active run the pressure in the bulla was raised to 75% of the passive opening pressure of the Eustachian tube. At this point the air flow into the bulla was stopped. […] This caused reflex swallowing, which was accompanied by a momentary opening of the Eustachian tube, and reduced middle ear pressure step by step. In each active run 10 consecutive swallows were recorded. […]",
  "data": [
    {"smiles": "CNCCc1ccccn1", "note": "[betahistine, N-methyl-2-pyridineethanaamine]", "values": [
      {"measurement": "increase in efficiency of Eustachian tube pressure equalisation", "setting": "anaesthetised rats, betahistine applied within the tympanic bulla and flushed through the Eustachian tube, FIG. 4", "result": "around 30%"},
      {"measurement": "effect on ET function", "setting": "anaesthetised rats, systemic (intraperitoneal) injection, cumulative doses 1, 5 and 10 μl, total 16 μl, FIG. 5", "result": "no significant effect"},
      {"measurement": "increase in efficiency of pressure equalisation through the Eustachian tube", "setting": "healthy anaesthetised rats, betahistine diHCl 5 μl of 8 mg/mL (Vasomotal) applied to the nasopharynx, normalized to control measurement C3, FIG. 3", "result": 31, "unit": "%"}
    ]}
  ]
}
